The results in this text go back to US20090264292A1, “HERBICIDAL COMPOSITION” (ISHIHARA SANGYO KAISHA, LTD., priority 2005, published 2009).

In general, inhibition refers to the percentage by which the read-out fell short of the control.

Each structure is given as a SMILES string.

Common to all, as to type: in vivo
The test system of assay [1] is velvetleaf (Abutilon theophrasti MEDIC.). The assay can be described thus: Test Example 3: pot test, foliar application, velvetleaf. As to conditions: 2.3 to 2.5 leaf stage, 14th day after application, read-out: Velvetleaf Growth inhibition rate (%) Observed. How it is done:
(§1) Growth inhibition rate (%)=0% (equivalent to the non-treated area) to 100% (complete kill)
Upland field soil was put into a 1/1,000,000 ha pot, and seeds of velvetleaf (Abutilon theophrasti MEDIC.) were sown. Then, when velvetleaf reached 2.3 to 2.5 leaf stage, a prescribed amount of the herbicidal composition was diluted with water corresponding to 300 L/ha, and foliar application was carried out by means of a small size spray.
On the 14th day after the application, the state of growth of velvetleaf was visually observed and evaluated in the same manner as in the above Test Example 1.

The test system is the same in assay [2]. Kind of assay: Test Example 2: pot test, foliar application, velvetleaf. As to conditions: 2.9 leaf stage, 21st day after application, read-out: Velvetleaf Growth inhibition rate (%) Observed. How it is done:
as §1
Upland field soil was put into a 1/1,000,000 ha pot, and seeds of velvetleaf (Abutilon theophrasti MEDIC.) were sown. Then, when velvetleaf reached 2.9 leaf stage, a prescribed amount of the herbicidal composition was diluted with water corresponding to 300 L/ha, and foliar application was carried out by means of a small size spray.
On the 21st day after the application, the state of growth of velvetleaf was visually observed and evaluated in the same manner as in the above Test Example 1.

For assay [3] the test system is unchanged. The assay can be described thus: Test Example 1: pot test, foliar application, velvetleaf. As to conditions: 2.8 leaf stage, 21st day after application, read-out: Velvetleaf Growth inhibition rate (%) Observed. How it is done: (§2) Upland field soil was put into a 1/1,000,000 ha pot, and seeds of various plants were sown. Then, when the plants reached the prescribed leaf stages ((1) 3.6 leaf stage of crabgrass (Digitaria sanguinalis L.), and (2), 2.8 leaf stage of velvetleaf (Abutilon theophrasti MEDIC.)), a prescribed amount of the herbicidal composition was diluted with water corresponding to 300 L/ha, and foliar application was carried out by means of a small size spray. On the 21st day after the application, the state of growth of each plant was visually observed, and the growth inhibition rate (%) evaluated in accordance with the following evaluation standard (observed value) and the growth inhibition rate (%) calculated by the above-mentioned Colby method (expected value) are shown in Tables 1 and 2 .
as §1

The subject of assay [4] is crabgrass (Digitaria sanguinalis L.). The assay can be described thus: Test Example 1: pot test, foliar application, crabgrass. As to conditions: 3.6 leaf stage, 21st day after application, read-out: Crabgrass Growth inhibition rate (%) Observed. How it is done: as §2, §1

As to `CCNc1nc(Cl)nc(NC(C)(C)C)n1` [Compound B-1, N^2-tert-butyl-6-chloro-N^4-ethyl-1,3,5-triazine-2,4-diamine], the inhibition at 1000 g/ha in assay [1] (1000 g/ha) was 37%. Further, the inhibition at 1500 g/ha in assay [1] (1500 g/ha) stood at 43%. The inhibition at 2000 g/ha in assay [1] (2000 g/ha) was 43%. The inhibition at 500 g/ha was determined as 47% in assay [2] (500 g/ha), 58% in assay [3] (500 g/ha) and 8% in assay [4] (500 g/ha). Besides, the inhibition at 250 g/ha in assay [3] (250 g/ha) was 57%; in assay [4] (250 g/ha) it was 5%.

As to `COc1cc(OC)nc(NC(=O)NS(=O)(=O)c2ncccc2C(=O)N(C)C)n1` [Compound A-1, 2-(4,6-dimethoxypyrimidin-2-ylcarbamoylsulfamoyl)-N,N-dimethylnicotinamide], in assay [1] (5 g/ha), the inhibition at 5 g/ha worked out at 5%. For the same molecule, the inhibition at 10 g/ha in assay [1] (10 g/ha) turned out to be 8%. Also, the inhibition at 15 g/ha in assay [1] (15 g/ha) worked out at 12%. The inhibition at 25 g/ha came to 38% in assay [2] (25 g/ha) and 53% in assay [4] (25 g/ha). The inhibition at 50 g/ha in assay [3] (50 g/ha) came out at 60%.
